Measured values taken from patent US20180340225A1 (SHANGHAI INSTITUTE FOR ENDOCRINE AND METABOLIC DISEASES, priority 2015, published 2018).

System: patients with Type 2 diabetes
Assay: Clinical efficacy indexes before and after 3 months of Acarbose treatment in naïve patients with Type 2 diabetes, by enterotype
Assay type: in vivo, human
Details: Prevotella enterotype, After treatment
Procedure: For naïve patients with Type 2 diabetes, their liver and kidney functions, blood glucose and lipid levels, intestinal hormones, inflammatory factors, and cardiovascular risk-related factors are evaluated before medication. Their stool, urine, and blood samples are retained. […] The patients' blood glucose levels are followed up every month within 3 months, and the medication is adjusted according to the blood glucose level. Three months later, the pre-medication assessment is repeated, and the urine, stool and blood samples are retained.
a) A randomized, opened, positive control method is adopted to collect the naïve patients with Type 2 diabetes and normal controls of their spouses. […] The newly diagnosed patients of Type 2 diabetes without medication receive routine examinations, including the retention of stool and blood samples.
i. Draw venous blood 15 ml under fasting condition, of which, 1.5 ml is used for detection of plasma glucose, 6.5 ml is added to ordinary tubes (including aprotinin, DPPV inhibitor), and 6.5 ml is added to anticoagulant tubes (including heparin and RNA later)
ii. Centrifuge the blood in ordinary tube at 4° C., when serum is separated out, draw about 3 ml, and divide to three 1.5 ml Eppendorf on average, then tighten the tube caps;
iii. Centrifuge the anticoagulation blood immediately at 4° C., to separate out about 3 ml of plasma, then divide to three 1.5 ml imported RNAase free Eppendorf tubes on average, […]

**Q.** What does the source list for `C[C@H]1O[C@H](O[C@H]2[C@H](O)[C@@H](O)[C@@H](O[C@H]3[C@H](O)[C@@H](O)C(O)O[C@@H]3CO)O[C@@H]2CO)[C@H](O)[C@@H](O)[C@@H]1N[C@H]1C=C(CO)[C@@H](O)[C@H](O)[C@H]1O` (stereo partly shown) [Acarbose]?
**A.** AKP Mean: 77.5; ALB Mean: 44.39; ALT Mean: 44.36; APOA Mean: 1.267; APOB Mean: 0.9273; AST Mean: 29.36; Adipisin Mean: 3221619.467; Adpn Mean: 10063264.07; BMI Mean: 25.11; BW Mean: 72.63; CP0 Mean: 2.485; CP30 Mean: 2.802; CP60 Mean: 3.609; CP120 Mean: 5.305; CP180 Mean: 4.735; DBIL Mean: 6.293; DBP Mean: 74.93; ENDOM Mean: 14.27; Endothelin Mean: 4.776; FABP3 Mean: 2147; FABP4 Mean: 10510.4; FGF1M Mean: 24.33; FGF2M Mean: 13.67; FGF19M Mean: 19.3; FGF23M Mean: 43.47; G30 Mean: 7.601; G60 Mean: 9.055; G120 Mean: 9.171; G180 Mean: 7.853; GIP0 Mean: 57.4; GIP30 Mean: 208.4; GIP60 Mean: 217.2; GIP120 Mean: 227.8; GIP180 Mean: 194.8; GMCSFM Mean: 67.97; GO Mean: 6.712; HB Mean: 147.8; HBA1C Mean: 6.313; HDL Mean: 2.869; HGF Mean: 400.9; HIP Mean: 97.21; HOMA.IR Mean: 3.327; IFNr1 Mean: 38.8; IL1B Mean: 0.9107; IL1bM Mean: 22.23; IL2M Mean: 58.77; IL4M Mean: 31.074; IL5M Mean: 43.97; IL6M Mean: 40.53; IL6 Mean: 2.665; IL8 Mean: 15.44; IL9M Mean: 84.9; IL10 Mean: 1.798; IL12 Mean: 9.944; IL13 Mean: 279.4; IL15M Mean: 291.8; IL17AM Mean: 32.03; IL17EM Mean: 21.23; IL17FM Mean: 232.6; IL21 Mean: 34.47; IL22M Mean: 30.5; IL23M Mean: 41.7; IL27 Mean: 73.1; IL28a Mean: 18.37; IL31M Mean: 112.3; IL33M Mean: 43.5; INS0 Mean: 11.734; INS30 Mean: 14.21; INS60 Mean: 23.404; INS120 Mean: 27.84; INS180 Mean: 20.88; K Mean: 4.054; LBP Mean: 17.616; LDL Mean: 1.169; LEPTIN Mean: 4522; LPA Mean: 214.8; Lymph Mean: 28.21; MCP1 Mean: 252.8; MIP3A Mean: 29.94; NEU Mean: 63.59; NGAL Mean: 174248.3333; NGF Mean: 2.434; Na Mean: 142.2; PAI1 Mean: 61006.73333; PDGFAA Mean: 4507; PDGFAABB Mean: 24006.8; PP0 Mean: 69.67; PP30 Mean: 376.7; PP60 Mean: 318.92; PP120 Mean: 260.1; PP180 Mean: 204.7; RANTES Mean: 47562.53333; RBC Mean: 4.945; RCv Mean: 0.4421; SBP Mean: 119.8; TBIL Mean: 14.9; TC Mean: 4.883; TG Mean: 1.694; TNFBM Mean: 44.7; TNFa Mean: 4.572; TPRO Mean: 73.55; Trophonin M Mean: 17.9; WAIST Mean: 88.93; WBC Mean: 6.146; WHR Mean: 0.9136; bun Mean: 326.5; creatine Mean: 67.42; crp Mean: 19.638; egf Mean: 267.604; fetuinA Mean: 417.3; fgf1 Mean: 13.79; fgf2 Mean: 43.98; fgf21M Mean: 97.93; fgf21 Mean: 0.296; monocyte Mean: 5.829; mpo Mean: 467.3; oscatinM Mean: 101.1; pCP0 Mean: 1066; pCP30 Mean: 1362; pCP60 Mean: 1935.42; pCP120 Mean: 2723.04; pCP180 Mean: 2526; pGLP10 Mean: 3.644; pGLP130 Mean: 11.41; pGLP160 Mean: 13.72; pGLP1120 Mean: 9.07; pGLP1180 Mean: 6.458; pHOMA.IR Mean: 2.717; pgh0 Mean: 53.4025; pgh30 Mean: 64.28; pgh60 Mean: 56.35; pgh120 Mean: 42.5275; pgh0180 Mean: 50.87; pgluc0 Mean: 39.2; pgluc30 Mean: 41.17; pgluc60 Mean: 36.68; pgluc120 Mean: 29.63; pgluc180 Mean: 30.43; pins0 Mean: 416.3; pins30 Mean: 639.9; pins60 Mean: 969; pins120 Mean: 1373; pins180 Mean: 1153; platelet Mean: 206.3; ppyy0 Mean: 43.57; ppyy30 Mean: 64.34; ppyy60 Mean: 56.78; ppyy120 Mean: 54.02; ppyy180 Mean: 51.59; rGT Mean: 43.12; resistin Mean: 25013.66667; sicam1 Mean: 123; svcam1 Mean: 545.498; urea Mean: 4.954; vegfa Mean: 340.2; vegfc Mean: 128.7; vegfd Mean: 195.1
